Like-named read-outs stand apart in the source and are kept apart here. Marks after values point to notes of the source that are not given here.
How the values were obtained:
Fusarium graminearum = format: cell-based
Cochliobolus miyabeanus = test: In vitro growth on cervinomycin-amended growth media; format: cell-based
Magnaporthe oryzae = format: in vivo
Zymoseptoria tritici = test: Host plant efficacy assay (wheat); format: in vivo; conditions: in vivo
Pyrenophora teres = test: Host plant efficacy assay (barley); format: in vivo; conditions: in vivo
Phakopsora pachyrhizi = test: Host plant efficacy assay (soybean); format: in vivo; conditions: in vivo
Phytophthora infestans = format: in vivo
Podosphaera xanthii = test: Host plant efficacy assay (cucumber); format: in vivo; conditions: in vivo
Erysiphe diffusa = test: Host plant efficacy assay (soybean); format: in vivo; conditions: in vivo
[1] = system: Pseudoperonospora cubensis; test: Foliar application, inoculated plants, disease severity; conditions: for Disease severity P. cubensis Oct. 20, 2020: carrier control severity 70; for Disease severity P. cubensis Oct. 27, 2020: carrier control severity 79; for Disease severity P. cubensis Jul. 28, 2020: carrier control severity 67; for Disease severity P. cubensis Jul. 21, 2020: carrier control severity 100
Protocol: (§1) Biological efficacy assays utilizing cervinomycins were conducted on Pseudoperonospora cubensis and Botrytis cinerea. […] Once plants had dried they were inoculated with the pathogen, then were stored in a controlled climate chamber under high humidity for 4-6 days. At the end of the experiment disease severity was determined based on the percentage of plant tissue that was visually symptomatic.

Botrytis cinerea = test: as above; conditions: for Disease severity B. cinerea: carrier control severity 63.3; for percent control B. cinerea: vs carrier control
Protocol: as §1

Plasmospora viticola = test: Efficacy on grape plants infected with Plasmospora viticola; conditions: for % control Plasmospora viticola 1DAI: 1 day after infection; for % control Plasmospora viticola 1DAI / % control Plasmospora viticola 1DB1 / % control Plasmospora viticola 7DBI: grape plants; for % control Plasmospora viticola 1DB1: 1 day before infection; for % control Plasmospora viticola 7DBI: 7 days before infection
Description: Treatments occurred at either 1 day before infection (“1 DBI”), 7 days before infection (“7 DBI”) or 1 day after infection (“1 DAI”).

[2] = 1 ppm foliar, vs carrier control
[3] = 3 ppm foliar, vs carrier control
[4] = 6 ppm foliar, vs carrier control
[5] = 12 ppm foliar, vs carrier control
[6] = 25 ppm foliar, vs carrier control
[7] = 30 ppm foliar, vs carrier control
[8] = 50 ppm foliar, vs carrier control

`COc1cc2oc3c(O)c4ccc5cc6c(c(O)c5c4c(O)c3c(=O)c2cc1OC)C(=O)N1CCOC1(C)C6` (centres unmarked) [Cervinomycin A1, cervinomycin A1] was tested, and the “% Control Fusarium graminearum” value (Fusarium graminearum; 0.004 ppm in growth media) was 4%, the “% Control Fusarium graminearum” value (Fusarium graminearum; 0.016 ppm in growth media) was 6% and the “% Control Fusarium graminearum” value (Fusarium graminearum; 0.063 ppm in growth media) was 7%. For the same compound, the “% Control Fusarium graminearum” value (Fusarium graminearum; 0.25 ppm in growth media) was 20%, the “% Control Fusarium graminearum” value (Fusarium graminearum; 1 ppm in growth media) was 31% and the “% Control Cochliobolus miyabeanus” value (Cochliobolus miyabeanus; 0.004 ppm in growth media) was 1%. The “% Control Cochliobolus miyabeanus” value (Cochliobolus miyabeanus; 0.016 ppm in growth media) was 2%, the “% Control Cochliobolus miyabeanus” value (Cochliobolus miyabeanus; 0.063 ppm in growth media) was 29% and the “% Control Cochliobolus miyabeanus” value (Cochliobolus miyabeanus; 0.25 ppm in growth media) was 59%. The “% Control Cochliobolus miyabeanus” value (Cochliobolus miyabeanus; 1 ppm in growth media) was 74%, the “% control Magnaporthe oryzae Rice 1DBI” value (Magnaporthe oryzae; 11.3 ppm) was 0 (0 (about 0%)) and the “% control Magnaporthe oryzae Rice 1DBI” value (Magnaporthe oryzae; 45 ppm) was 0 (0 (about 0%)). The “% control Magnaporthe oryzae Rice 1DBI” value (Magnaporthe oryzae; 180 ppm) was 0 (0 (about 0%)), the “% control Zymoseptoria tritici Wheat 3DAI” value (Zymoseptoria tritici) was 0 (key: 5 (about 100%); 4 (about 90%); 3 (about 70%); 2 (about 50%); 1 (about 25%); 0 (about 0%)) and the “% control Zymoseptoria tritici Wheat 4DBI” value (Zymoseptoria tritici) was 0 (key: 5 (about 100%); 4 (about 90%); 3 (about 70%); 2 (about 50%); 1 (about 25%); 0 (about 0%)). For the same compound, the “% control Pyrenophora teres Barley 1DBI” value (Pyrenophora teres) was 0 (key: 5 (about 100%); 4 (about 90%); 3 (about 70%); 2 (about 50%); 1 (about 25%); 0 (about 0%)), the “% control Phakopsora pachyrhizi Soybean 3DAI” value (Phakopsora pachyrhizi) was 0 (key: 5 (about 100%); 4 (about 90%); 3 (about 70%); 2 (about 50%); 1 (about 25%); 0 (about 0%)) and the “% control Phytophthora infestans Tomato 1DBI” value (Phytophthora infestans; 11.3 ppm) was 0 (0 (about 0%)). For the same compound, the “% control Phytophthora infestans Tomato 1DBI” value (Phytophthora infestans; 45 ppm) was 0 (0 (about 0%)), the “% control Phytophthora infestans Tomato 1DBI” value (Phytophthora infestans; 180 ppm) was 3 (3 (about 70%)) and the “% control Podosphaera xanthii Cucumber 1DBI” value (Podosphaera xanthii) was 0 (key: 5 (about 100%); 4 (about 90%); 3 (about 70%); 2 (about 50%); 1 (about 25%); 0 (about 0%)). The “% control Erysiphe diffusa Soybean 2DAI” value (Erysiphe diffusa) was 0 (key: 5 (about 100%); 4 (about 90%); 3 (about 70%); 2 (about 50%); 1 (about 25%); 0 (about 0%)), the “Disease severity P. cubensis Oct. 20, 2020” value ([1]; 1 ppm foliar) was 13% and the “Disease severity P. cubensis Oct. 27, 2020” value ([1]; 1 ppm foliar) was 2%. The “percent control P. cubensis Oct. 20, 2020” value [1, 2] was “(81%)*”, the “percent control P. cubensis Oct. 27, 2020” value [1, 2] was 98% and the “Disease severity P. cubensis Jul. 28, 2020” value ([1]; 3 ppm foliar) was 47%. The “Disease severity P. cubensis Oct. 20, 2020” value ([1]; 3 ppm foliar) was 3%, the “Disease severity P. cubensis Oct. 27, 2020” value ([1]; 3 ppm foliar) was 1% and the “percent control P. cubensis Jul. 28, 2020” value [1, 3] was 30%. For the same compound, the “percent control P. cubensis Oct. 20, 2020” value [1, 3] was “(96%)”, the “percent control P. cubensis Oct. 27, 2020” value [1, 3] was 99% and the “Disease severity P. cubensis Oct. 20, 2020” value ([1]; 6 ppm foliar) was 2%. The “Disease severity P. cubensis Oct. 27, 2020” value ([1]; 6 ppm foliar) was 1%, the “percent control P. cubensis Oct. 20, 2020” value [1, 4] was “(97%)” and the “percent control P. cubensis Oct. 27, 2020” value [1, 4] was 99%. The “Disease severity P. cubensis Jul. 28, 2020” value ([1]; 7.5 ppm foliar) was 43%, the “percent control P. cubensis Jul. 28, 2020” value ([1]; 7.5 ppm foliar, vs carrier control) was 36% and the “Disease severity P. cubensis Oct. 20, 2020” value ([1]; 12 ppm foliar) was 1%. The “Disease severity P. cubensis Oct. 27, 2020” value ([1]; 12 ppm foliar) was 2%, the “percent control P. cubensis Oct. 20, 2020” value [1, 5] was “(99%)” and the “percent control P. cubensis Oct. 27, 2020” value [1, 5] was 98%. The “Disease severity P. cubensis Jul. 28, 2020” value ([1]; 15 ppm foliar) was 16%, the “percent control P. cubensis Jul. 28, 2020” value ([1]; 15 ppm foliar, vs carrier control) was 76% and the “Disease severity P. cubensis Oct. 20, 2020” value ([1]; 25 ppm foliar) was 1%. The “Disease severity P. cubensis Oct. 27, 2020” value ([1]; 25 ppm foliar) was 1%, the “percent control P. cubensis Oct. 20, 2020” value [1, 6] was “(99%)” and the “percent control P. cubensis Oct. 27, 2020” value [1, 6] was 99%. For the same compound, the “Disease severity P. cubensis Jul. 28, 2020” value ([1]; 30 ppm foliar) was 7%, the “Disease severity P. cubensis Jul. 14, 2020” value ([1]; 30 ppm foliar, carrier control severity 98) was 25% and the “Disease severity P. cubensis Jul. 21, 2020” value ([1]; 30 ppm foliar) was 3%. For the same compound, the “percent control P. cubensis Jul. 14, 2020” value [1, 7] was 74%, the “percent control P. cubensis Jul. 21, 2020” value [1, 7] was 97% and the “percent control P. cubensis Jul. 28, 2020” value [1, 7] was 89%. The “Disease severity P. cubensis Oct. 20, 2020” value ([1]; 50 ppm foliar) was 0.4%, the “Disease severity P. cubensis Oct. 27, 2020” value ([1]; 50 ppm foliar) was 1% and the “percent control P. cubensis Oct. 20, 2020” value [1, 8] was “(99%)”. For the same compound, the “percent control P. cubensis Oct. 27, 2020” value [1, 8] was 99%, the “Disease severity P. cubensis Jul. 21, 2020” value ([1]; 192 ppm foliar) was 3% and the “percent control P. cubensis Jul. 21, 2020” value ([1]; 192 ppm foliar, vs carrier control) was 97%. The “control of Pseudoperonospora cubensis (summary of Table 3)” value ([1]; foliar application) was “significant control”, the “Disease severity B. cinerea” value (Botrytis cinerea; 1 ppm foliar) was 31% and the “percent control B. cinerea” value (Botrytis cinerea; 1 ppm foliar) was “(51%)”. The “Disease severity B. cinerea” value (Botrytis cinerea; 3 ppm foliar) was 17%, the “percent control B. cinerea” value (Botrytis cinerea; 3 ppm foliar) was “(74%)” and the “Disease severity B. cinerea” value (Botrytis cinerea; 6 ppm foliar) was 9%. The “percent control B. cinerea” value (Botrytis cinerea; 6 ppm foliar) was “(85%)”, the “Disease severity B. cinerea” value (Botrytis cinerea; 12 ppm foliar) was 2% and the “percent control B. cinerea” value (Botrytis cinerea; 12 ppm foliar) was “(96%)”. For the same compound, the “Disease severity B. cinerea” value (Botrytis cinerea; 25 ppm foliar) was 2%, the “percent control B. cinerea” value (Botrytis cinerea; 25 ppm foliar) was “(96%)” and the “Disease severity B. cinerea” value (Botrytis cinerea; 50 ppm foliar) was 1%. For the same compound, the “percent control B. cinerea” value (Botrytis cinerea; 50 ppm foliar) was “(98%)”, the “control of Botrytis cinerea (summary of Table 3)” value (Botrytis cinerea; foliar application) was “significant control” and the “control of P. viticiola (summary of Table 1)” value (Plasmospora viticola; 13-800 ppm) was “significant control”. The “% control Plasmospora viticola 1DAI” value (Plasmospora viticola; 13 ppm) was 0%, the “% control Plasmospora viticola 1DB1” value (Plasmospora viticola; 13 ppm) was 100% and the “% control Plasmospora viticola 7DBI” value (Plasmospora viticola; 13 ppm) was 80%. The “% control Plasmospora viticola 1DAI” value (Plasmospora viticola; 50 ppm) was 0%, the “% control Plasmospora viticola 1DB1” value (Plasmospora viticola; 50 ppm) was 100% and the “% control Plasmospora viticola 1DAI” value (Plasmospora viticola; 200 ppm) was 0%. For the same compound, the “% control Plasmospora viticola 1DB1” value (Plasmospora viticola; 200 ppm) was 100%, the “% control Plasmospora viticola 7DBI” value (Plasmospora viticola; 200 ppm) was 100% and the “% control Plasmospora viticola 1DAI” value (Plasmospora viticola; 800 ppm) was 7%. For the same compound, the “% control Plasmospora viticola 1DB1” value (Plasmospora viticola; 800 ppm) was 100% and the “% control Plasmospora viticola 7DBI” value (Plasmospora viticola; 800 ppm) was 100%.

— US20240215582A1, “METHODS OF CONTROLLING PLANT PATHOGENS” (Valent BioSciences LLC, priority 2022, published 2024)
